Assay results taken from patent publication US20080064758A1, “METHOD OF TREATMENT OR PROPHYLAXIS OF DEPRESSION” (MediciNova, Inc., priority 2006, published 2008).
Where a name gives a salt, the structure may show the parent alone.

Columns and labels:
immobility of mice = experiment: Tail suspension; type: in vivo; settings: 30 mg/kg PO, reference
Protocol: Compounds of a general formula (I) (starting at an initial dose of 30 mg/kg PO, 1 hr pretreatment) were administered to mice (n=5). A reduction of immobility by 50% or more relative to a vehicle-treated control group indicates possible antidepressant activity. Fluoxetine hydrochloride served as a standard reference compound. […] There was a 35% mobility reduction at 100 mg/kg PO, 54% mobility reduction at 10 mg/kg PO and 46% mobility reduction at 1 mg/kg PO.

[1] = tested on: reserpine-induced hypothermia; experiment: Antagonism of the reserpine-induced hypothermia; type: in vivo, mice; settings: given 4 hours after reserpine 2.5 mg/kg i.p.; rectal temperature 90 min after compound
Protocol: Antagonism of the Reserpine-Induced Hypothermia
The compounds of a general formula (I) as well as the reference compounds are administered 4 hours after reserpine (2.5 mg/kg i.p.). Rectal temperature is measured 90 minutes after the administration of the compounds to be tested.

[2] = tested on: apomorphine-induced hypothermia; experiment: Antagonism of apomorphine-induced hypothermia; type: in vivo; settings: male CD1 mice; i.p.; apomorphine 16 mg/kg s.c.; rectal temperature 30 min after apomorphine
Protocol: Antagonism of Apomorphine-Induced Hypothermia (A. J. Puech et al., Psychopharmacology (1981) 75(1):84-91)
Male CD1 mice (Charles River) weighing 22-25 g are used in the test. The mice are housed individually in transparent plastic cages. The compounds of a general formula (I) as well as the reference compounds are suspended in 1% aqueous carboxymethylcellulose and administered intraperitoneally (10 ml/kg; 6 mice per dose). Control animals received the vehicle only.
Rectal temperature is measured using a probe carrying a thermoelectric couple (connected to a galvanometer) inserted to a constant depth.
The compounds to be tested as well as the vehicle are administered 30 minutes after basal rectal temperature is measured, and 30 minutes later apomorphine (16 mg/kg) is administered subcutaneously. Rectal temperature is measured again 30 minutes after the administration of apomorphine.
The results are expressed as average rectal temperature of each group, by evaluating the significant differences in temperature between treated and control mice by Student's t test, and are used for calculating the M.A.D., i.e., the minimal active dose.

SMILES	reduction of immobility (immobility of mice) [%]	M.A.D. (minimal active dose), antagonism of reserpine-induced hypothermia [1]	M.A.D. (minimal active dose), antagonism of apomorphine-induced hypothermia [2] [mg/kg i.p.]
CNCCC(Oc1ccc(C(F)(F)F)cc1)c1ccccc1 (stereo not drawn) [fluoxetine, Fluoxetine hydrochloride]	87	–	–
CC(C)(C)NCC(O)c1cc(Cl)c(N)c(Cl)c1 (stereo not drawn) [clenbuterol]	–	0.03 mg/kg i.p.	0.03
CCOC(=O)COc1cccc([C@@H]2CCC[C@@H](NC[C@H](O)c3cccc(Cl)c3)C2)c1 [Compound A, 3-[(1R,3R)-3-[(2R)-2-(3-chlorophenyl)-2-hydroxyethylamino]cyclohexyl]-phenoxy acetic acid ethyl ester, maleate salt]	–	closer to clenbuterol (0.03 mg/kg i.p.) than salbutamol (3.0 mg/kg i.p.)	–
CC(C)(C)NCC(O)c1ccc(O)c(CO)c1 (stereo not drawn) [salbutamol]	–	3.0 mg/kg i.p.	1.0
